Results on 32 molecules are retold here after US10005767B2, “Compositions and methods for inhibition of the JAK pathway” (Rigel Pharmaceuticals, Inc., priority 2009, dated 2018).

The structures appear in SMILES notation. Structures can show the parent of a compound that is named as a salt.

For the first assay, the system named is human primary T-cells, IL-2 stimulated proliferation (JAK-1 and JAK-3 dependent; reported as JAK3 activity). Kind of assay: Human primary T-cell proliferation stimulated by IL-2 (Example 3). It is filed as cell-based. Particulars: Homo sapiens, T-cell, tested under conditions described in Example 3 (IL-2 stimulated human primary T-cell proliferation); read-out: ability to inhibit JAK3 activity, IC50 range (Table V). An outline of the steps: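 Peripheral-blood human T-cells pre-activated via TCR/CD28, IL-2-starved overnight, then cultured 72 h at 37 °C with compound in Yssel's medium containing IL-2 (80 U/mL in cell suspension). Proliferation read as viable-cell ATP by CellTiter-Glo luminescence; reduction versus control taken as JAK pathway inhibition.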
`Cc1cnc(Nc2ccc(-c3ccc(OCCCN(C)C)nc3)cc2)nc1Nc1ccc2oc(=O)[nH]c2c1` [Compound I-511, 5-(2-(4-(6-(3-(dimethylamino)propoxy)pyridin-3-yl)phenylamino)-5-methylpyrimidin-4-ylamino)benzo[d]oxazol-2(3H)-one trifluoroacetate salt]: the IC50 is under 500 nM. Regarding `Cc1cc(F)cc(Nc2ncc(C)c(Nc3ccc4oc(=O)[nH]c4c3)n2)c1` [Compound I-199, 5-[2-(3-Fluoro-5-methyl-phenylamino)-5-methyl-pyrimidin-4-ylamino]-3H-benzooxazol-2-one], the IC50 is under 500 nM. Same read-out and setting: the same measure for `CNC(C)c1cc(Nc2ncc(C)c(Nc3ccc4oc(=O)[nH]c4c3)n2)cc(C(F)(F)F)c1` (centres unmarked) [Compound I-457, 5-(5-methyl-2-(3-(1-(methylamino)ethyl)-5-(trifluoromethyl)phenylamino)pyrimidin-4-ylamino)benzo[d]oxazol-2(3H)-one]: under 500 nM; for `CN1CCN(c2ccc(Nc3ncc(F)c(Nc4ccc5oc(=O)n(C)c5c4)n3)cn2)CC1` [II-24, N2-(6-(4-methylpiperazin-1-yl)pyridin-3-yl)-N4-(3-methyl-2-oxo-2,3-dihydrobenzo[d]oxazol-5-yl)-5-fluoropyrimidine-2,4-diamine]: 500 to 5000 nM; for `Cc1cnc(Nc2cccc(C(=O)N3CCCC3)c2)nc1Nc1ccc2oc(=O)[nH]c2c1` [Compound I-246, 5-(5-methyl-2-(3-(pyrrolidine-1-carbonyl)phenylamino)pyrimidin-4-ylamino)benzo[d]oxazol-2(3H)-one]: under 500 nM. The same measure, in the same setting: the same measure for `COc1cc(Nc2ncc(C)c(Nc3ccc4oc(=O)[nH]c4c3)n2)ccc1C(=O)N1CCCC1` [Compound I-268, 5-(2-(3-methoxy-4-(pyrrolidine-1-carbonyl)phenylamino)-5-methylpyrimidin-4-ylamino)benzo[d]oxazol-2(3H)-one]: under 500 nM; for `Cc1cnc(Nc2ccc(N3CCN(C)CC3)nc2)nc1Nc1cc(F)c2oc(=O)[nH]c2c1` [II-75, 7-fluoro-5-(5-methyl-2-(6-(4-methylpiperazin-1-yl)pyridin-3-ylamino)pyrimidin-4-ylamino)benzo[d]oxazol-2(3H)-one]: under 500 nM.

As to `Cc1cnc(Nc2cc(OCC3CCC3)cc(C(F)(F)F)c2)nc1Nc1ccc2oc(=O)[nH]c2c1` [Compound I-227, 5-(2-(3-(cyclobutylmethoxy)-5-(trifluoromethyl)phenylamino)-5-methylpyrimidin-4-ylamino)benzo[d]oxazol-2(3H)-one], the IC50 lay in the range of 500 to 5000 nM. Same read-out and setting: the value for `Cc1cnc(Nc2cc(F)cc(N3CCN(C)CC3)c2)nc1Nc1ccc2oc(=O)[nH]c2c1` [Compound I-241, 5-(2-(3-fluoro-5-(4-methylpiperazin-1-yl)phenylamino)-5-methylpyrimidin-4-ylamino)benzo[d]oxazol-2(3H)-one] was under 500 nM; that for `Cc1cnc(Nc2ccc(C(=O)N3CCNCC3)nc2)nc1Nc1ccc2oc(=O)[nH]c2c1` [II-45, 5-{5-Methyl-2-[6-(piperazine-1-carbonyl)-pyridin-3-ylamino]-pyrimidin-4-ylamino}-3H-benzooxazol-2-one] was under 500 nM; that for `Cc1cnc(Nc2ccc3cn[nH]c3c2)nc1Nc1ccc2oc(=O)[nH]c2c1` [IV-4, N4-(benzo[d]oxazol-2(3H)-on-5-yl)-N2-(1H-indazol-6-yl)-5-methylpyrimidine-2,4-diamine] was under 500 nM. In the case of `CCc1ccccc1Nc1ncc(C)c(Nc2ccc3oc(=O)[nH]c3c2)n1` [Compound I-502, 5-(2-(2-ethylphenylamino)-5-methylpyrimidin-4-ylamino)benzo[d]oxazol-2(3H)-one], the IC50 fell in the range of 500 to 5000 nM. Same read-out and setting: the same measure for `COc1cc(Nc2ncc(C)c(Nc3ccc4oc(=O)[nH]c4c3)n2)cc(C(F)F)c1` [Compound I-273, 5-(2-(3-(difluoromethyl)-5-methoxyphenylamino)-5-methylpyrimidin-4-ylamino)benzo[d]oxazol-2(3H)-one]: under 500 nM. Same read-out and setting: the value for `O=c1[nH]c2cc(Nc3nc(Nc4cccc(OC(F)(F)F)c4)ncc3F)ccc2o1` [Compound I-107, N4-(benzoxazolin-2-on-5-yl)-N2-(3-trifluoromethoxyphenyl)-5-fluoropyrimidine-2,4-diamine trifluoroacetate salt] was 500 to 5000 nM; that for `COc1cc(Nc2ncc(C)c(Nc3ccc4oc(=O)[nH]c4c3)n2)ccc1F` [Compound I-183, 5-[2-(4-Fluoro-3-methoxy-phenylamino)-5-methyl-pyrimidin-4-ylamino]-3H-benzooxazol-2-one] was under 500 nM. On the same count and under the same terms, the value for `Cc1cnc(Nc2cc(C(C)O)ccc2F)nc1Nc1ccc2oc(=O)[nH]c2c1` (centres unmarked) [Compound I-523, 5-(2-(2-fluoro-5-(1-hydroxyethyl)phenylamino)-5-methylpyrimidin-4-ylamino)benzo[d]oxazol-2(3H)-one] was under 500 nM.

Take `Cc1cnc(Nc2ccc3c(c2)CCNC3=O)nc1Nc1ccc2oc(=O)[nH]c2c1` [IV-15, 6-[5-Methyl-4-(2-oxo-2,3-dihydro-benzooxazol-5-ylamino)-pyrimidin-2-ylamino]-3,4-dihydro-2H-isoquinolin-1-one]: the IC50 is under 500 nM.

For the molecule `Cc1cnc(Nc2ccc(OCCC(C)C)cc2)nc1Nc1ccc2oc(=O)[nH]c2c1` [Compound I-197, 5-{5-Methyl-2-[4-(3-methyl-butoxy)-phenylamino]-pyrimidin-4-ylamino}-3H-benzooxazol-2-one], the IC50 was over 10000 nM. Still for that read-out and setting: the same measure for `Cc1cnc(Nc2ccc(C(=O)N3CCOCC3)cc2)nc1Nc1ccc2oc(=O)[nH]c2c1` [Compound I-257, 5-(5-methyl-2-(4-(morpholine-4-carbonyl)phenylamino)pyrimidin-4-ylamino)benzo[d]oxazol-2(3H)-one]: under 500 nM.

Regarding `Cc1cnc(Nc2ccc3c(C)n[nH]c3c2)nc1Nc1ccc2oc(=O)[nH]c2c1` [IV-48, 5-methyl-N2-(3-methylindazol-6-yl)-N4-(2-oxo-2,3-dihydro-1,3-benzoxazol-5-yl)-2,4-pyrimidinediamine], the IC50 was under 500 nM. Same read-out and setting: the value for `COc1ccc(Nc2ncc(C)c(Nc3ccc4oc(=O)[nH]c4c3)n2)cc1` [Compound I-272, 5-(2-(4-methoxyphenylamino)-5-methylpyrimidin-4-ylamino)benzo[d]oxazol-2(3H)-one] was under 500 nM.

Turning to `Cc1cnc(Nc2ccc(OCCN3CCOCC3)c(Cl)c2)nc1Nc1ccc2oc(=O)[nH]c2c1` [Compound I-191, 5-{2-[3-Chloro-4-(2-morpholin-4-yl-ethoxy)-phenylamino]-5-methyl-pyrimidin-4-ylamino}-3H-benzooxazol-2-one], the IC50 was under 500 nM.

Still in this assay, the particulars now being: tested under conditions described in Example 3 (IL-2 stimulated human primary T-cell proliferation); read-out: ability to inhibit JAK3 activity, IC50 range (Table V).
Take `Cc1cnc(Nc2ccc(OC(F)(F)F)c(F)c2)nc1Nc1ccc2oc(=O)[nH]c2c1` [Compound I-376, N2-(3-fluoro-4-trifluoromethoxy)phenyl-5-methyl-N4-(2-oxo-2,3-dihydro-1,3-benzoxazol-5-yl)-2,4-pyrimidinediamine]: the IC50 is under 500 nM. Still for that read-out and setting: the same measure for `Cc1cc(Nc2ncc(C)c(Nc3ccc4oc(=O)[nH]c4c3)n2)ccc1OC(C)(C)C(N)=O` [Compound I-391, N2-[4-(1-aminocarbonyl-1-methyl)ethoxy-3-methyl]phenyl-5-methyl-N4-(2-oxo-2,3-dihydro-1,3-benzoxazol-5-yl)-2,4-pyrimidinediamine]: under 500 nM; for `Cc1cnc(Nc2cc(OC(F)F)cc(C(F)(F)F)c2)nc1Nc1ccc2oc(=O)[nH]c2c1` [Compound I-353, N2-(3-difluoromethoxy-5-trifluoromethyl)phenyl-5-methyl-N4-(2-oxo-2,3-dihydro-1,3-benzoxazol-5-yl)-2,4-pyrimidinediamine]: under 500 nM. On the same count and under the same terms, the value for `Cc1cnc(Nc2cccc(S(C)(=O)=O)c2)nc1Nc1ccc2c(c1)oc(=O)n2C` [Compound I-65, N2-((3-methylsulfonyl)phenyl)-N4-(3-methyl-2-oxo-2,3-dihydrobenzo[d]oxazol-6-yl)-5-methylpyrimidine-2,4-diamine] was under 500 nM. The same measure, in the same setting: the value for `O=c1[nH]c2ccc(Nc3nc(Nc4ccc(N5CCOCC5)nc4)ncc3F)cc2[nH]1` [II-19, N4-(benzimidazolin-2-on-5-yl)-N2-((2-morpholinyl)pyridin-5-yl)-5-fluoropyrimidine-2,4-diamine] was under 500 nM; that for `Cc1cnc(Nc2ccc(S(C)(=O)=O)cc2)nc1Nc1ccc2oc(=O)[nH]c2c1` [Compound I-17] was under 500 nM. Consider `Cc1cnc(Nc2ccc(S(C)(=O)=O)cc2)nc1Nc1ccc2oc(=O)n(C)c2c1` [Compound I-70, N2-((4-methylsulfonyl)phenyl)-N4-(3-methyl-2-oxo-2,3-dihydrobenzo[d]oxazol-5-yl)-5-methylpyrimidine-2,4-diamine], for which the IC50 is under 500 nM. For the molecule `Cc1cc(Nc2ncc(C)c(Nc3ccc4oc(=O)[nH]c4c3)n2)ccc1F` [Compound I-362, N2-(4-fluoro-3-methyl)phenyl-5-methyl-N4-(2-oxo-2,3-dihydro-1,3-benzoxazol-5-yl)-2,4-pyrimidinediamine], the IC50 was under 500 nM. On the same count and under the same terms, the value for `COc1cc(Nc2ncc(C)c(Nc3ccc4oc(=O)n(COP(=O)(O)O)c4c3)n2)cc(C)c1F` [Compound I-538, Sodium (5-(2-(4-fluoro-3-methoxy-5-methylphenylamino)-5-methylpyrimidin-4-ylamino)-2-oxobenzo[d]oxazol-3(2H)-yl)methyl phosphate] was 500 to 5000 nM; that for `COc1cccc(Nc2ncc(C)c(Nc3ccc4oc(=O)[nH]c4c3)n2)c1C` [Compound I-328, N2-(3-methoxy-2-methyl)phenyl-5-methyl-N4-(2-oxo-2,3-dihydro-1,3-benzoxazol-5-yl)-2,4-pyrimidinediamine] was 500 to 5000 nM.

Usually IC50 stands for the concentration that gives 50% inhibition.
